With `CC(C)(C)c1ccc(SCCCCCOc2ccc(C3=C(c4ccccc4)CCCc4cc(O)ccc43)cc2)cc1` [Example 54, 5-{4-[5-(4-tert-Butyl-phenylthio)-pentyloxy]-phenyl}-6-phenyl-8,9-dihydro-7H-benzocyclohepten-2-ol] the melting point was 139 °C.

`O=S(=O)(CCCCCOc1ccc(C2=C(c3ccccc3)CCCc3cc(O)ccc32)cc1)c1ccccc1` [Example 53, 6-phenyl-5-[4-(5-phenylsulfonyl-pentyloxy)-phenyl]-8,9-dihydro-7H-benzocyclohepten-2-ol] gave a melting point of 162 °C.

Source: patent US7145015B2, “Benzocycloheptenes, process for their production, pharmaceutical preparations that contain that latter as well as their use for the production of pharmaceutical agents” (Schering AG, priority 1998, dated 2006)
